From patent US20010031749A1, “Novel C-2 S/O-and S/N formaldehyde Acetal Derivatives of Carbapenem-3-carboxylic acids and their use as antibiotics and beta-lactamase inhibitors” (priority 1998, published 2001)
Values belong to the compound of their own block, whether it stands above or below them.

What was measured:
E. coli EC 225 = experiment: β-Lactamase inhibition activity against resistant bacteria (MIC of ceftazidime without and with Ia); assay type: cell-based; conditions: Escherichia coli, EC225, enzyme TEM-5, read-out: MIC, CAZ alone
K. pneumoniae KL 140 = experiment: as above; assay type: cell-based; conditions: Klebsiella pneumoniae, KL140, enzyme CAZ-ase, read-out: MIC, CAZ alone
E. coli EC 227 = experiment: as above; assay type: cell-based; conditions: Escherichia coli, EC227, enzyme CAZ-ase, read-out: MIC, CAZ alone
E. cloacae EB 131 = experiment: as above; assay type: cell-based; conditions: Enterobacter cloacae, EB131, enzyme Type 1 Ceph'ase, read-out: MIC, CAZ alone
E. coli EC 228 = experiment: as above; assay type: cell-based; conditions: Escherichia coli, EC228, enzyme CAZ-ase, read-out: MIC, CAZ alone
K. pneumoniae KL 141 = experiment: as above; assay type: cell-based; conditions: Klebsiella pneumoniae, KL141, enzyme CAZ-ase, read-out: MIC, CAZ alone
[1] = molecular target: T1, Penicillinase from E. coli TEM 1 (Escherichia coli, UniProt P62593); experiment: β-Lactamase inhibition against isolated (cell free) enzymes, nitrocefin method; assay type: biochemical
T1 construct: bacterial β-lactamases isolated from Enterobacter cloacae and Escherichia coli; host or cells: Escherichia coli (enzyme isolated, cell free)
T1 sequence (P62593 24-286 limits assumed): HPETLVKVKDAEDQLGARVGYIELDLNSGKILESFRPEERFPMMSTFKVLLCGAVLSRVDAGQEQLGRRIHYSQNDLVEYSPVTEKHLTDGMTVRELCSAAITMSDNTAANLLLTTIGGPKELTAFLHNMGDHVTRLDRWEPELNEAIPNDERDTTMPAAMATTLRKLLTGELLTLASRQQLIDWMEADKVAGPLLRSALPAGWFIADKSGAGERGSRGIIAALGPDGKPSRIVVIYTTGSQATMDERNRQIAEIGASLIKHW
Source text: (§1) Moreover, all tested ceftazidime resistant Gram-negative pathogens became susceptible to a combination of ceftazidime and the compounds according to the invention. Thus, these compounds are also very potent β-lactamase inhibitors. The very high activity as β-lactamase inhibitors of the compounds I according to the invention was also observed with isolated bacterial enzymes in the nitrocefin test (R. Reimer, Methodicum Chimicum: Antibiotics, Vitamins and Hormons; F. Korte, M. Goto, eds., Thieme, Stuttgart, 1977, p.11, E. Wasielewski, Arzneimittel, Vol. 4; Chemotherapeutica, Part 1, Verlag Chemie, Weinheim 1972).
(§2) IC50 values were determined in a 1 cm UV cell at 37° C. after a 15 min preincubation period of enzyme and the inhibitor.

[2] = molecular target: T2, β-Lactamase from Enterobacter cloacae (Enterobacter cloacae, UniProt P05364); experiment: as above; assay type: biochemical; conditions: 37° C., 15 min preincubation of enzyme and inhibitor
T2 construct: bacterial β-lactamases isolated from Enterobacter cloacae and Escherichia coli; host or cells: Enterobacter cloacae (enzyme isolated, cell free)
T2 sequence (P05364 21-381): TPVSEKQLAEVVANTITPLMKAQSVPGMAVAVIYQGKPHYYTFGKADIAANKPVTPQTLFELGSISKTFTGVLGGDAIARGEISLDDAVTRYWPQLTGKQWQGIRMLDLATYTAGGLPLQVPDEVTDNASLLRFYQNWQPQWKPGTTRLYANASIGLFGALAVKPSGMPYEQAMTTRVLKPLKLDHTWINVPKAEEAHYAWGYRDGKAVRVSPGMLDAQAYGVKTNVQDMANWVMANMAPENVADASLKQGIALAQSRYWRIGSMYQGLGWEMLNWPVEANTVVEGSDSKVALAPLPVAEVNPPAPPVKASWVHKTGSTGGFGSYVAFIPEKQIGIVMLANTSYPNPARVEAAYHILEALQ
Source text: as §1, §2

[3] = Stability in phosphate buffer (half-life of hydrolysis, UV method); assay type: physicochemical; conditions: for half-life: physiological phosphate buffer pH 7.4 and 37° C., UV method
[4] = Oral activity: plasma level and half-life in mice after oral application; assay type: in vivo; conditions: mouse, dose 25 mg per kg, potassium salt
Staph. aureus DSM 1104 = experiment: In vitro antibacterial activity, plate test (inhibition diameter); assay type: cell-based; conditions: 10 μg, Difco Nutrient Agar, 18 hrs at 37° C.
Protocol: (§3) The tests were carried out in sterile polypropylene dishes (diameter 8.5 cm) containing 10 ml of Difco Nutrient Agar. Inhibition was recorded after 18 hrs at 37° C. (inoculum ca. […] cells).

Staph. aureus Innsbruck = experiment: as above; assay type: cell-based; conditions: 10 μg, Difco Nutrient Agar, 18 hrs at 37° C.
Protocol: as §3

Staph. aureus 25768 = experiment: as above; assay type: cell-based; conditions: 10 μg, Difco Nutrient Agar, 18 hrs at 37° C.
Protocol: as §3

Escherichia coli TEM 1 = experiment: as above; assay type: cell-based; conditions: 10 μg, Difco Nutrient Agar, 18 hrs at 37° C.
Protocol: as §3

[5] = test system: Escherichia coli DSM 1103; experiment: as above; assay type: cell-based; conditions: 10 μg, Difco Nutrient Agar, 18 hrs at 37° C.
Protocol: as §3

[6] = test system: Enterobacter cloacae DSM 30054; experiment: as above; assay type: cell-based; conditions: 10 μg, Difco Nutrient Agar, 18 hrs at 37° C.
Protocol: as §3

Enterococcus = experiment: as above; assay type: cell-based; conditions: 10 μg, Difco Nutrient Agar, 18 hrs at 37° C.
Protocol: as §3

Staph. aureus resistant = experiment: as above; assay type: cell-based; conditions: 10 μg, Difco Nutrient Agar, 18 hrs at 37° C.
Protocol: as §3

Sacharomyces cerevisiae = experiment: Cytotoxicity, agar diffusion method; assay type: cell-based; conditions: 1.0 mg, yeast and mold agar, 16 hrs at 30° C.
Protocol: Sterile PP dishes of 8.5 cm diameter containing 10 ml of yeast and mold agar were used. Cytotoxicity was recorded after a 16 hrs incubation period at 30° C. (inoculum approx. 10^5 cells).

[7] = test system: Pseudomonas aer. resistant; experiment: In vitro antibacterial activity, plate test (inhibition diameter); assay type: cell-based, Pseudomonas aeruginosa; conditions: 10 μg, Difco Nutrient Agar, 18 hrs at 37° C.
Protocol: as §3

[8] = test system: Pseudomonas aer. DSM 1117; experiment: as above; assay type: cell-based, Pseudomonas aeruginosa; conditions: 10 μg, Difco Nutrient Agar, 18 hrs at 37° C.
Protocol: as §3

MIC (E. coli EC 225): 64 µg/mL | MIC (K. pneumoniae KL 140): > 64 µg/mL | MIC (E. coli EC 227): > 64 µg/mL | MIC (E. cloacae EB 131): > 64 µg/mL | MIC (E. coli EC 228): 16 µg/mL | MIC (K. pneumoniae KL 141): > 64 µg/mL
SMILES: CC(C)(O/N=C(\C(=O)N[C@@H]1C(=O)N2C(C(=O)[O-])=C(C[n+]3ccccc3)CS[C@H]12)c1csc(N)n1)C(=O)O [CAZ, ceftazidime]

SMILES: COCSC1=C(C(=O)O)N2C(=O)[C@H]([C@@H](C)O)[C@H]2[C@H]1C [Ia, Potassium (4R,5S,6S)-6-((1′R)-hydroxyethyl)-3-(methoxymethylthio)-4-methyl-7-oxo-1-azabicyclo[3.2.0]hept-2-ene-2-carboxylate]
IC50 [1]: 200 nM | IC50 [2]: 4 nM | half-life [3]: 50 h | concentration at 10 min ([4]; plasma): 5600 ng/mL | half-life ([4]; serum, 25 mg/kg, read-out: Approximative serum half-life): 0.417 h

SMILES: CC(O)C1C(=O)N2C(C(=O)O)=C(SCOCCN)C(C)C12 (centres unmarked) [Ib]
inhibition diameter (Staph. aureus DSM 1104): 39 mm | inhibition diameter (Staph. aureus Innsbruck): 9 mm | inhibition diameter (Staph. aureus 25768): 28 mm | inhibition diameter (Escherichia coli TEM 1): 33 mm | inhibition diameter [5]: 30 mm | inhibition diameter [6]: 26 mm | inhibition diameter (Enterococcus): 21 mm | inhibition diameter (Staph. aureus resistant): 35 mm | inhibition diameter (cytotoxicity) (Sacharomyces cerevisiae): 0 mm | IC50 [1]: 550 nM | IC50 [2]: 8.5 nM | half-life [3]: 50 h | inhibition diameter [7]: 17 mm | inhibition diameter [8]: 27 mm

SMILES: CC(O)C1C(=O)N2C(C(=O)O)=C(SCOCCNC=N)C(C)C12 [Ic, (4R,5S,6S)-3-((2-(Formimidoylamino)ethoxv)methylthio)-((1′R)-hydroxyethyl)-4-methyl-7-oxo-1-azabicyclo[3.2.0]hept-2-ene-2-carboxylic acid]
inhibition diameter (Staph. aureus DSM 1104): 39 mm | inhibition diameter (Staph. aureus Innsbruck): 8 mm | inhibition diameter (Staph. aureus 25768): 26 mm | inhibition diameter (Escherichia coli TEM 1): 33 mm | inhibition diameter [5]: 30 mm | inhibition diameter [6]: 25 mm | inhibition diameter (Enterococcus): 21 mm | inhibition diameter (Staph. aureus resistant): 35 mm | half-life [3]: 35 h | inhibition diameter [7]: 13 mm | inhibition diameter [8]: 25 mm

half-life [3]: 50 h
SMILES: CC(O)C1C(=O)N2C(C(=O)O)=C(SCOC(C)(C)CN)C(C)C12 [Id, (4R,5S,6S)-3-((2-amino-1,1-dimethylethoxy)methylthio)-6-((1′R)-hydroxyethyl)-4-methyl-7-oxo-1-azabicyclo[3.2.0]hept-2-ene-2-carboxylic acid]

SMILES: CC(=O)NCSC1=C(C(=O)O)N2C(=O)[C@H]([C@@H](C)O)[C@H]2[C@H]1C [Ie, Potassium (4R,5S,6S)-3-(acetamidomethylthio)-((1′R)-hydroxyethyl)-4-methyl-7-oxo-1-azabicyclo[3.2.0]hept-2-ene-2-carboxylate]
inhibition diameter (Staph. aureus DSM 1104): 36 mm | inhibition diameter (Staph. aureus 25768): 27 mm | inhibition diameter (Escherichia coli TEM 1): 34 mm | inhibition diameter [5]: 32 mm | inhibition diameter [6]: 27 mm | inhibition diameter (Enterococcus): 18 mm | inhibition diameter (Staph. aureus resistant): 32 mm | inhibition diameter (cytotoxicity) (Sacharomyces cerevisiae): 0 mm | IC50 [1]: 300 nM | IC50 [2]: 6 nM | half-life [3]: 40 h | inhibition diameter [8]: 16 mm

SMILES: CC(O)C1C(=O)N2C(C(=O)O)=C(SCNC(=O)CN)C(C)C12 [If, (4R,5S,6S)-3-((2-Aminoacetamido)methylthio-6-((1′R)-hydroxyethyl)-4-methyl-7-oxo-1-azabicyclo[3.2.0]hept-2-ene-2-carboxylic acid]
inhibition diameter (Staph. aureus DSM 1104): 33 mm | inhibition diameter (Staph. aureus Innsbruck): 12 mm | inhibition diameter (Staph. aureus 25768): 25 mm | inhibition diameter (Escherichia coli TEM 1): 33 mm | inhibition diameter [5]: 27 mm | inhibition diameter [6]: 23 mm | inhibition diameter (Enterococcus): 20 mm | inhibition diameter (Staph. aureus resistant): 30 mm | inhibition diameter (cytotoxicity) (Sacharomyces cerevisiae): 0 mm | half-life [3]: 16 h | inhibition diameter [7]: 14 mm | inhibition diameter [8]: 18 mm

half-life of hydrolysis ([3]; buffer, pH 7.4): 42 h
SMILES: CCN1CCN(CSC2=C(C(=O)[O-])N3C(=O)[C@H]([C@@H](C)O)[C@H]3[C@H]2C)C(=O)C1=O.[K+] [Ig, Potassium (4R,5S,6S)-3-((2,3-dioxo-4-ethyl-piperazinyl)methylthio)-6-((1′R)-hydroxyethyl)-4-methyl-7-oxo-1-azabicyclo[3.2.0]hept-2-ene-2-carboxylate]
